The source of these data is ChEMBL document CHEMBL5257125, “Discovery of pyrido[4,3-d]pyrimidinone derivatives as novel Wee1 inhibitors” (Bioorg Med Chem, 2023).

One data set addresses Wee1-like protein kinase (Homo sapiens, UniProt P30291). In words: Inhibition of recombinant human Wee1 (214 to end residues) incubated for 1 hr in presence of tracer 178 by fluorescence based assay.
Data set [1] is described as follows: Metabolic stability in mouse liver microsomes assessed as parent compound remaining preincubated with NADPH for 5 mins followed by compound addition and measured upto 90 mins by LC-MS/MS analysis. In kind it is ADME, Microsome. To be noted: read-out: Stability.
A further data set deals with T47D. In words: Antiproliferative activity against human T47D cells incubated for 72 hrs by Celltiter-glo assay. In kind it is functional, cell-based.
In the next data set the test system is MV4-11. In words: Antiproliferative activity against human MV4-11 cells incubated for 72 hrs by Celltiter-glo assay. Type of data set: functional, cell-based. To be noted: MV4-11, 72 h.

Molecules are shown by their SMILES.

Sequence of Wee1-like protein kinase (P30291 whole entry): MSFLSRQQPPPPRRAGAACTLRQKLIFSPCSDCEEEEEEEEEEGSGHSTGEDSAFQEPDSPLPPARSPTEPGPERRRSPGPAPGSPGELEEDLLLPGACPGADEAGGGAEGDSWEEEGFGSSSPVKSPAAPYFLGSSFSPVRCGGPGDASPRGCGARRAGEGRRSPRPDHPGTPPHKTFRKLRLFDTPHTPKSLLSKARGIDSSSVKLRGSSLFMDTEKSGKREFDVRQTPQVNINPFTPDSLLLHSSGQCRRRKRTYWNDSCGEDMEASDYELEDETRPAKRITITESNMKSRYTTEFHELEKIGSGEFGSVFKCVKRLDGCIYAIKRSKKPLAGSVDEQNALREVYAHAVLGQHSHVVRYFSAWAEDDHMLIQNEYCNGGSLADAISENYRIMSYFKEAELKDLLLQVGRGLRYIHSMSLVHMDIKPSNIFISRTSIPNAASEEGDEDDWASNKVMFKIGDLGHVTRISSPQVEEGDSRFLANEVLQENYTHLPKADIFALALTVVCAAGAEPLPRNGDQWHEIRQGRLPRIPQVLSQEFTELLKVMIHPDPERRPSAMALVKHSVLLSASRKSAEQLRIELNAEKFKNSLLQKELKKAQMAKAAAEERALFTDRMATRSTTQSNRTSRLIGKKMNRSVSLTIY

With `Cc1cccc(Cl)c1-n1cnc2cc(Nc3ccc(N4CCN(C)CC4)cc3)ncc2c1=O`, the IC50 at Wee1-like protein kinase was determined as 78 nM. Turning to `CN(C)CCCNc1ccc(Nc2cc3ncn(-c4c(Cl)cccc4Cl)c(=O)c3cn2)cc1`, the remaining at 1.5 h in data set [1] is 22%. Also, the figures for the IC50 on Wee1-like protein kinase, in the data set on T47D and in the data set on MV4-11 were 79 nM, 14000 nM and 874 nM, respectively. On to `C[C@@H]1CN(c2ccc(Nc3cc4ncn(-c5c(Cl)cccc5Cl)c(=O)c4cn3)cc2C(F)(F)F)C[C@H](C)N1`, for which the IC50 at Wee1-like protein kinase was 192 nM. For the compound `CN1CCN(c2ccc(Nc3cc4ncn(-c5c(Cl)cccc5Cl)c(=O)c4cn3)nc2)CC1`, the IC50 at Wee1-like protein kinase came to 18 nM; with T47D, 6390 nM; with MV4-11, 1070 nM. Consider `NCC1CCN(c2ccc(Nc3cc4ncn(-c5c(Cl)cccc5Cl)c(=O)c4cn3)cc2)CC1`, for which the IC50 on Wee1-like protein kinase came to 55 nM. On the same count and under the same terms, the same measure for `CC(=O)N1CCN(c2ccc(Nc3cc4ncn(-c5c(Cl)cccc5Cl)c(=O)c4cn3)cc2)CC1`: 294 nM; for `COc1cc(Nc2cc3ncn(-c4c(Cl)cccc4Cl)c(=O)c3cn2)ccc1N1C[C@@H](C)N[C@@H](C)C1`: 52 nM. For the compound `N[C@H]1CCN(c2ccc(Nc3cc4ncn(-c5c(Cl)cccc5Cl)c(=O)c4cn3)cc2)C1`, the IC50 stood at 40 nM on Wee1-like protein kinase, 5030 nM in the data set on T47D and 1010 nM in the data set with MV4-11. With `O=c1c2cnc(Nc3ccc(N4CCN(C5CC5)CC4)cc3)cc2ncn1-c1c(Cl)cccc1Cl`, at Wee1-like protein kinase, the IC50 is 97 nM. With `CN(C)CCN(C)c1ccc(Nc2cc3ncn(-c4c(Cl)cccc4Cl)c(=O)c3cn2)cc1`, the remaining at 1.5 h in data set [1] was found to be 60%. For the same compound, the IC50 on Wee1-like protein kinase stood at 70 nM; in the data set on T47D, 9600 nM; with MV4-11 it was 660 nM. Consider `CN(CCCN)c1ccc(Nc2cc3ncn(-c4c(Cl)cccc4Cl)c(=O)c3cn2)cc1`, for which, on Wee1-like protein kinase, the IC50 was determined as 90 nM. In the case of `CN(C)CCOc1ccc(Nc2cc3ncn(-c4c(Cl)cccc4Cl)c(=O)c3cn2)cc1`, the IC50 at Wee1-like protein kinase was determined as 52 nM; in the data set on T47D it was 10400 nM; with MV4-11, 1220 nM. As for `O=c1c2cnc(Nc3ccc(N[C@@H]4CN5CCC4CC5)cc3)cc2ncn1-c1c(Cl)cccc1Cl`, the IC50 at Wee1-like protein kinase was 201 nM. With `N[C@@H]1CCN(c2ccc(Nc3cc4ncn(-c5c(Cl)cccc5Cl)c(=O)c4cn3)cc2)C1`, the IC50 on Wee1-like protein kinase amounted to 58 nM. The same measure, in the same setting: the same measure for `N[C@@H]1CCCN(c2ccc(Nc3cc4ncn(-c5c(Cl)cccc5Cl)c(=O)c4cn3)cc2)C1`: 36 nM. On to `CN1CCC(Nc2ccc(Nc3cc4ncn(-c5c(Cl)cccc5Cl)c(=O)c4cn3)cc2)CC1`, for which the IC50 on Wee1-like protein kinase stood at 35 nM; in the data set with T47D, 19200 nM; in the data set on MV4-11, 1760 nM.

In the case of `CC(C)N1CCN(c2ccc(Nc3cc4ncn(-c5c(Cl)cccc5Cl)c(=O)c4cn3)cc2)CC1`, the IC50 on Wee1-like protein kinase was determined as 38 nM. `O=c1c2cnc(Nc3ccc(N4CCN(CCO)CC4)cc3)cc2ncn1-c1c(Cl)cccc1Cl`: the IC50 on Wee1-like protein kinase is 43 nM; with T47D, 13700 nM; with MV4-11, 2050 nM.

With `NC1CCN(c2ccc(Nc3cc4ncn(-c5c(Cl)cccc5Cl)c(=O)c4cn3)cc2)CC1`, the figures for the concentration for half-maximal inhibition (IC50) at Wee1-like protein kinase, in the data set with T47D and with MV4-11 were 65 nM, 18800 nM and 2690 nM, respectively.

Turning to `C=CCn1c(=O)c2cnc(Nc3ccc(N4CCN(C)CC4)cc3)nc2n1-c1cccc(C(C)(C)O)n1` [ADAVOSERTIB], the figures for the IC50 in the data set on T47D and in the data set on MV4-11 were 12800 nM and 95 nM, respectively.

In the case of `C[C@@H]1CN(c2ccc(Nc3cc4ncn(-c5c(Cl)cccc5Cl)c(=O)c4cn3)cc2CNC2CC2)C[C@H](C)N1`, at Wee1-like protein kinase, the IC50 is 107 nM. Same read-out and setting: the same measure for `O=c1c2cnc(Nc3ccc(C4CCNCC4)cc3)cc2ncn1-c1c(Cl)cccc1Cl`: 78 nM. For `C[C@@H]1CN(c2ccc(Nc3cc4ncn(-c5c(Cl)cccc5Cl)c(=O)c4cn3)nc2)C[C@H](C)N1`, the IC50 worked out at 23 nM at Wee1-like protein kinase, 2670 nM with T47D and 1160 nM in the data set with MV4-11. As for `CN1CCN(Cc2ccc(Nc3cc4ncn(-c5c(Cl)cccc5Cl)c(=O)c4cn3)cc2)CC1`, at Wee1-like protein kinase, the IC50 was 124 nM.

As to `C[C@@H]1CN(c2ccc(Nc3cc4ncn(-c5c(Cl)cccc5Cl)c(=O)c4cn3)cc2CO)C[C@H](C)N1`, in data set [1], the remaining at 1.5 h is more than 50%. Moreover, the IC50 on Wee1-like protein kinase worked out at 23 nM; in the data set with T47D, 3230 nM; in the data set with MV4-11, 791 nM. `O=c1c2cnc(Nc3ccc(N4CCC(CO)CC4)cc3)cc2ncn1-c1c(Cl)cccc1Cl`: the IC50 at Wee1-like protein kinase is 515 nM.

Consider `C[C@@H]1CN(c2ccc(Nc3cc4ncn(-c5c(Cl)cccc5Cl)c(=O)c4cn3)cc2C#N)C[C@H](C)N1`, for which the IC50 at Wee1-like protein kinase is 163 nM.

In the case of `N[C@H]1CCCN(c2ccc(Nc3cc4ncn(-c5c(Cl)cccc5Cl)c(=O)c4cn3)cc2)C1`, the values for the IC50 on Wee1-like protein kinase, in the data set with T47D and in the data set with MV4-11 were 41 nM, 4680 nM and 1460 nM, respectively. For the compound `O=c1c2cnc(Nc3ccc(N4CCNCC4)cc3)cc2ncn1-c1c(Cl)cccc1Cl`, the remaining at 1.5 h in data set [1] was more than 50%. For the same compound, the figures for the IC50 at Wee1-like protein kinase, with T47D and in the data set on MV4-11 were 48 nM, 4230 nM and 863 nM, respectively. As to `CN1CCN(c2ccc(Nc3cc4ncn(-c5c(Cl)cccc5Cl)c(=O)c4cn3)cc2)CC1`, the results for the IC50 on Wee1-like protein kinase, in the data set on T47D and in the data set with MV4-11 were 47 nM, 14400 nM and 1330 nM, respectively. Take `CN(C)C1CCN(c2ccc(Nc3cc4ncn(-c5c(Cl)cccc5Cl)c(=O)c4cn3)cc2)CC1`: the IC50 on Wee1-like protein kinase was found to be 73 nM. As for `O=c1c2cnc(Nc3ccc(NC4CCNCC4)cc3)cc2ncn1-c1c(Cl)cccc1Cl`, the IC50 was 77 nM on Wee1-like protein kinase, more than 20000 nM with T47D and 2470 nM in the data set with MV4-11.

In the case of `CN(C)CCCN(C)c1ccc(Nc2cc3ncn(-c4c(Cl)cccc4Cl)c(=O)c3cn2)cc1`, the IC50 at Wee1-like protein kinase was found to be 142 nM. For `CN1CCN(c2ccc(Nc3cc4ncn(-c5c(F)cccc5Cl)c(=O)c4cn3)cc2)CC1`, the IC50 at Wee1-like protein kinase came to 268 nM. With `C[C@@H]1CN(c2ccc(Nc3cc4ncn(-c5c(Cl)cccc5Cl)c(=O)c4cn3)cc2)C[C@H](C)N1`, the IC50 on Wee1-like protein kinase was determined as 19 nM; with T47D, 4130 nM; with MV4-11, 2680 nM. For `CN1CCC(Oc2ccc(Nc3cc4ncn(-c5c(Cl)cccc5Cl)c(=O)c4cn3)cc2)CC1`, at Wee1-like protein kinase, the IC50 turned out to be 93 nM. Same read-out and setting: with `CN1CCN(c2ccc(Nc3cc4ncn(-c5ccccc5F)c(=O)c4cn3)cc2)CC1` the figure was 1480 nM; with `CCN1CCN(c2ccc(Nc3cc4ncn(-c5c(Cl)cccc5Cl)c(=O)c4cn3)cc2)CC1`, 85 nM. In the case of `O=c1c2cnc(Nc3ccc(N4CCC(O)CC4)cc3)cc2ncn1-c1c(Cl)cccc1Cl`, the IC50 at Wee1-like protein kinase was determined as 96 nM.
